Results as given in US20060029563A1, “Cutanceous metabolic bio-activator” (Jean-Noel Thorel, priority 2002, published 2006).
One block for each compound: values may come before it. Where a SMILES comes first, the peptide text is derived from it. [ ]: non-standard residue; d: D form. Cit = NC(=O)NCCC[C@H](N)C(=O)O

What was measured:
[1] = test system: HaCaT cells; test: growth of HaCaT cells, WST-1 conversion method; assay type: cell-based, human
Experimental: The objective of this trial is to evaluate the effect of the combination ATP+peptides, added to a culture medium, on the growth of an immortalized line of human […], HaCaT cells.
The study is carried out on a culture prepared in the standard culture medium for HaCaT cells, DMEM (Sigma) in the presence of fetal calf serum (SVF) at 2 or 10%.
The HaCaT cells are seeded at low density in a 96-well plate in the standard medium (DMEM+10% SVF) and grow for 24 h after seeding in this medium.
On the 2nd day, the cells are placed under the various conditions studied.
The test concentrations in terms of ATP, β-alanyl-L- histidine (Carnosine) and L-citrullyl-L-arginine (exsy- algine) are determined subsequent to preliminary cytotoxicity studies.
The following conditions are prepared: • A control condition: culture medium alone+SVF • A condition consisting of β-alanyl-L-histidine alone at 0.5%. • A condition consisting of L-citrullyl-L-arginine are known at 0.5%. • A condition consisting of ATP alone at 1 μg/ml. • A condition consisting of ATP (1 μg/ml)+β-alanyl-L-histidine (0.5%). • A condition consisting of ATP (1 μg/ml)+L-citrullyl-L-arginine (0.5%) • A condition consisting of ATP (1 μg/ml)+β-alanyl-L-histidine (0.5%)+L- citrullyl-L-arginine (0.5%).
These various conditions are prepared both in the DMEM containing 2% SVF and the DMEM containing 10% SVF.
Each condition is prepared in triplicate. The media are not renewed in the course of the experiment.
The cell density is evaluated 24 h after seeding of the cells, before the cells are brought into contact with the various study conditions (=T0), and the growth of the HaCaT cells is then evaluated on the 2nd, 5th and 7th days of culture by means of the WST-1 conversion method (reading at 450 nm).
The cell growth is objectified by measuring the cell viability at various times of the experiment. The results obtained give the percentage cell viability calculated with respect to the initial cell density at T0, for which it is estimated that the cell density is equal to 100%. The effects of the various products on cell growth are analyzed at the various times of the experiment, relative to the nontreated control at the same time of the experiment.

[2] = prior cell viability test on normal human keratinocytes; assay type: cell-based; conditions: after 48 h of contact, highest 2 concentrations, 0.0001% and 0.01%
Experimental: In order to determine the concentrations applicable in the context of the trial, a prior cell viability test is carried out on normal human keratinocytes.
L-citrullyl-L-arginine is dissolved in water and the final concentration is fixed at 0.1%.
6 dilutions of L-citrullyl-L-arginine from 10^−4% to 10^−2% are brought into contact with the cells for 24 h and 48 h. A “water” condition is realized as a control.
For the trial, the L-citrullyl-L-arginine will be tested at the highest 2 concentrations that allow the cell viability to be maintained at a level greater than 80%, after 48 h of contact, i.e. 0.0001% and 0.01%.

[3] = test system: secretion of endothelin-1 by normal human keratinocytes; test: endothelin-1 secretion by keratinocytes (ELISA), nonirradiated or after UV B irradiation; assay type: cell-based; conditions: for increase in the basal secretion of endothelin-1 compared with the water control: nonirradiated
Experimental: The trial is carried out on an in vitro culture of normal human keratinocytes seeded at a density of 10^5 cells/well in 6-well plates.
The keratinocytes, seeded in 6-well plates at a density of 10^5 cells/well, are cultured in standard medium (Epilife Sigma) for 48 h. Before irradiation, the culture medium is removed, the cells are rinsed with PBS buffer, and 1 ml thereof is left in contact with the cells for the irradiation. The keratinocytes are subjected to a UV B irradiation (312 nm) of 20 mJ/cm^2. An identical nonirradiated condition is realized in parallel.
After irradiation (and on the nonirradiated parallel), the PBS is removed and the cells are placed under the various conditions studied: • control of water in the culture medium, […]
Each condition is realized in triplicate.
After contact for 24 h or 48 h after irradiation, the conditioned culture supernatants are recovered. The amount of endothelin-1 secreted by the keratinocytes is measured on 100 μl of supernatant by means of an ELISA technique (R&D Systems, Abingdon, UK). The endothelin-1 levels are calculated by means of the standard curve prepared with synthesized human endothelin-1. The results are expressed in pg of endothelin-1 standardized with respect to the protein concentration (pg ET-1/mg of proteins).

[4] = test system: normal human melanocytes; test: comet assay on UVA-irradiated normal human melanocytes; assay type: cell-based; conditions: 4 mM each
Experimental: Cultures of normal human melanocytes (MHNs) are prepared from fore skins of infants and of newborns suffering from phimosis. The melanocytes obtained from skin fragments are placed in MCDB 153 medium (Sigma St Louis, Mo., USA) supplemented with 30 μg/ml of bovine pituitary extract (BPE) (Life Technologies, Paisley, England), 2% of fetal calf serum (SVF) (Dominique Dutscher, Brumath, France), 16 nM of phorbol-12-myristate-13-acetate (Sigma), 5 μg/ml of insulin and 1.1 μM of hydrocortisone (Sigma). The cultures are maintained in an incubator at 37° C. and-in-an atmosphere containing 5% CO2. Pure cultures of melanocytes are obtained after 2 to 3 weeks.
All the compositions tested are solubilized in DMSO at the maximum concentrations permitted. Preliminary trials are carried out in order to determine the subtoxic concentrations on the keratinocytes. The final concentration of DMSO is always less than 2%.
The melanocytes are brought into contact with the product for 30 min at 37° C., and are then irradiated with UVA radiation. The UVA irradiations are generated by means of a Bio-Sun UV-irradiator (Vilbert Lourmat, Marne la Vallée). This device is equipped with monochromatic lamps that emit a wavelength of 312 nm and/or 365 nm. The lamps deliver a calculated energy by means of an RMW-365/312 radiometer. The energies delivered are 0.8 J/cm^2 for the UVA range. The “comet” assay is carried out immediately after exposure. Two types of controls are included in these experiments: • negative controls: melanocytes that are not treated but […]; melanocytes treated for 30 min with the composition tested, but not irradiated. • Positive control: melanocytes that are not treated but are irradiated.
After treatment with a typsin/EDTA mixture (0.05%/0.02%) for 2 to 3 minutes, the cultures are 15 recovered by centrifugation and placed in PBS buffer without Ca++ and without Mg++ (Sigma). Following a second centrifugation, the cells (4.5-5.0×10^4 cells) are suspended in 0.5% low melting point (LMP) agarose (Sigma). The mixture is directly deposited onto microscope slides coated with a prelayer of agarose (1.6%) dried overnight at ambient temperature and freshly precoated with a second layer of agarose (0.8%).
The protocol for the comet assay is that of De Meo et al., incorporating the “dry slide” technique. After the irradiations, the slides are placed in a lysis bath (2.5 M NaCl, 100 mM Na2EDTA, 10 mM Tris-HCl, pH 10, 1% of sodium sarcosinate, 1% of triton X-100 and 10% of DMSO). The cell lysis is performed at 4° C. for 60 minutes, followed by denaturation of the DNA at ambient temperature for 20 min in a strongly alkaline solution (1 mM Na2EDTA and 300 mM NaOH, pH>13.0). After electrophoresis (25 V, 300 mA) for 20 min., the slides are neutralized with the Tris-HCl buffer (0.4 M; pH 7.4) and dehydrated in absolute ethanol or methanol.
The slides are stained with ethidium bromide solution (75 μl of 2 μg/ml) and observed using a BH2-RFL fluorescence microscope (Olympus, Japan) equipped with a 20BG-W dichroic filter (excitation: 515-560 nm; emission: 590 nm) and with an Apo D-Plan 20× objective. The image analysis is carried out with a high sensitivity monochrome CCD camera (Cohu 4912-5000) coupled to a Matrox IP-8 acquisition board. The entire assembly is controlled by means of the Fenestra Komet software (Kinetic Imaging, Liverpool, UK, version 3.1).
A total of 100 cells per sample (50 cells/slide) is analyzed. The parameter used is “tail DNA”, which is defined as the percentage of DNA in the tail of the “comet”. For each series of experiments, a negative control (nonirradiated cells) and a positive control (irradiated cells without composition tested) are included.
Nonlinear regressions based on a χ^2 function are calculated directly from the TM (tail moment) distribution frequencies for each sample. Specifically, Bauer et al. have recently shown that these distributions follow a χ^2 function. […]

[5] = NI: nonirradiated melanocytes pretreated 30 min
[6] = melanocytes irradiated with UVA (0.8 J/cm^2), pretreated 30 min

Structure (SMILES): NCCC(=O)N[C@@H](Cc1c[nH]cn1)C(=O)O [β-alanyl-L-histidine]
effect on cell growth (in words) ([1]; after 2 days of culture, 0.1%): no effect on growth
cell growth relative to the nontreated control ([1]; after 2 days of culture, 0.5%, 2% SVF): +22%
cell growth relative to the nontreated control ([1]; after 5 days of culture, 0.5%): +12%
effect on cell viability / growth (in words), conclusion ([1]; conclusion of the trial, at the concentrations tested): exerts a stimulatory effect on cell growth

OTM-χ^2 [4, 5]: 2.06 ± 0.02
Structure (SMILES): N=C(N)NCCC[C@H](NC(=O)[C@@H](N)CCCNC(N)=O)C(=O)O [L-citrullyl-L-arginine] (H-[Cit]-Arg-OH)
viability at 48 h [2]: > 80%
effect on the secretion of endothelin-1 (in words) ([3]; 0.01%, conclusion): considerable activating effect
increase in secretion of endothelin-1 compared with the irradiated water control ([3]; UV B 20 mJ/cm^2, 24 h, 0.0001%): 6%
increase in secretion of endothelin-1 compared with the irradiated water control ([3]; UV B 20 mJ/cm^2, 24 h, 0.001%): 28%
increase in secretion of endothelin-1 compared with the irradiated water control ([3]; UV B 20 mJ/cm^2, 48 h, 0.0001%): 4%
increase in secretion of endothelin-1 compared with the irradiated water control ([3]; UV B 20 mJ/cm^2, 48 h, 0.01%): 63%
increase in the basal secretion of endothelin-1 compared with the water control ([3]; 24 h, 0.0001%): 20%
increase in the basal secretion of endothelin-1 compared with the water control ([3]; 24 h, 0.01%): 70%
increase in the basal secretion of endothelin-1 compared with the water control ([3]; 48 h, 0.0001%): 26%
increase in the basal secretion of endothelin-1 compared with the water control ([3]; 48 h, 0.01%): 82%
cell growth relative to the nontreated control ([1]; after 2 days of culture, 0.1% and 0.5%): +5%
effect on cell viability / growth (in words) ([1]; after 5 days of culture): does not stimulate cell growth
Degree of protection (%) [4, 6]: 67.7%
OTM-χ^2 [4, 6]: 2.22 ± 0.20

Structure (SMILES): Nc1ncnc2c1ncn2[C@@H]1O[C@H](COP(=O)(O)OP(=O)(O)OP(=O)(O)O)[C@@H](O)[C@H]1O [ATP, adenosine triphosphate]
effect on endothelin-1 synthesis (in words) ([3]; ATP alone): do not show any effect
change in cell viability ([1]; ATP alone, after 2 to 5 days of contact): −5 to −10%
effect on cell viability (in words) ([1]; after 2 days of culture, ATP 1 μg/ml): substantially decreases cell viability
effect on cell viability / growth (in words) ([1]; after 5 days of culture): substantially decreases cell viability
OTM-χ^2 [4, 5]: 2.08 ± 0.02
Degree of protection (%) [4, 6]: 14.6%
OTM-χ^2 [4, 6]: 6.31 ± 0.38
